The values that follow are results of earlier work, collected in patent publication US20080241073A1, “Polymeric Micelle Type Mri Imaging Agent” (Kanagawa Academy of Science and Technology, priority 2004, published 2008).

For this series the following is noted: Corot et al., Non-patent Literature 2.

On to `O=C([O-])CN1CCN(CC(=O)[O-])CCN(CC(=O)O)CCN(CC(=O)[O-])CC1.[Gd+3]` [DOTA-Gd], for which the T1 relaxivity is reported as 3.4.
